# PMC3448946 (Biochemistry, 2011)
# Read-outs that look alike come from different tables or passages of the source.
# Experiments:
# [1] = target: T1, MSOX (monomeric sarcosine oxidase) (Bacillus sp., UniProt P40859); experiment: Spectral titration of MSOX; type: binding; conditions: for Kd: 50 mM potassium phosphate buffer
# T1 sequence (P40859 1-390): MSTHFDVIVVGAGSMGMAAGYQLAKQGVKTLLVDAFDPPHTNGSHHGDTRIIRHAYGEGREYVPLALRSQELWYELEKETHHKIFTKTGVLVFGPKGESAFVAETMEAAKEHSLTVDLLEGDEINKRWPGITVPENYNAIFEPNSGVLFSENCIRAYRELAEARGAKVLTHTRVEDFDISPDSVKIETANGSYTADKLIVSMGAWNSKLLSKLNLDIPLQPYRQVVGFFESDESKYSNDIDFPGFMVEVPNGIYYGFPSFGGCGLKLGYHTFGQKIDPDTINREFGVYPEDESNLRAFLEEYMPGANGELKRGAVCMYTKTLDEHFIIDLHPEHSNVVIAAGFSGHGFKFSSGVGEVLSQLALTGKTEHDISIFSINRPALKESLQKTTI
# [2] = target: Lys265Met MSOX mutant (Bacillus sp., UniProt P40859, K266M); conditions: absorption spectrum of mutant unaffected by 2.0 M potassium chloride
# [3] = target: GOX (glucose oxidase) (Aspergillus niger, UniProt P13006); experiment: biochemical
# Chain of GOX (glucose oxidase) (P13006 23-605 limits assumed): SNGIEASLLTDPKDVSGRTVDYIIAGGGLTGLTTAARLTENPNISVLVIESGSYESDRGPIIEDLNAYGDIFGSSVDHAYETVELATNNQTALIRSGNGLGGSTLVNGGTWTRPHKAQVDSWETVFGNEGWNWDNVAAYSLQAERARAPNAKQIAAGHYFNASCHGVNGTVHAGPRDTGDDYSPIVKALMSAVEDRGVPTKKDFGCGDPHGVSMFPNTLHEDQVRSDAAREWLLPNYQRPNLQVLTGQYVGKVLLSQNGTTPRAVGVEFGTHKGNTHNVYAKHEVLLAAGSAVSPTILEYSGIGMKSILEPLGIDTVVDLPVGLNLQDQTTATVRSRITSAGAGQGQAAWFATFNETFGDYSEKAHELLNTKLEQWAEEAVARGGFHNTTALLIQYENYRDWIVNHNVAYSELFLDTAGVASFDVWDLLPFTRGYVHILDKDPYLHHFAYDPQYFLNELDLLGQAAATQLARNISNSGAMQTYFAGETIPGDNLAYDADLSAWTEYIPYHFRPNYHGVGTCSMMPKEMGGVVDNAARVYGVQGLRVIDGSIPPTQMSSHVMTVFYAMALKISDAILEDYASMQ
# [4] = target: T2, reduced MSOX (Bacillus sp., UniProt P40859)
# [5] = target: T2, reduced MSOX; experiment: biochemical
# [6] = target: T2, reduced MSOX; conditions: absence of chloride; cited from earlier work
compound,measurement,setting,value
"CSCC(=O)O [MTA, methylthioacetate]",Kd,"[1]; MSOX + MTA ⇄ MSOX•MTA, no additions, pH 8.0, 25 °C",2.43 ± 0.02 mM
same,Kd,"[1]; MSOX + MTA ⇄ MSOX•MTA, plus 667 mM sodium sulfate, pH 8.0, 25 °C, plus 667 mM sodium sulfate",1.84 ± 0.01 mM
same,Kd,"[1]; MSOX•Cl− + MTA ⇄ MSOX•Cl−•MTA, pH 8.0, containing 2.0 M potassium chloride, 25 °C, absorbance at 528 nm",4.9 ± 0.07 mM
Cl [chloride],Chloride binding to Lys265Met MSOX,[2],eliminates chloride binding
same,Kd,[3],6.2 ± 0.1 mM
same,Chloride binding at oxygen activation site of reduced MSOX in solution,[4],not bound
O=O [oxygen],Second-order rate constant for reaction of reduced MSOX with oxygen,"[4]; 50 mM potassium phosphate, pH 8.0, 2.0 M potassium chloride, 25 °C, monitored at 454 nm",2.48 ± 0.03 × 10^5 M^−1 s^−1
same,Kd,[5],≥ 10 mM
same,Second-order rate constant for reaction of reduced MSOX with oxygen,[6],2.83 ± 0.07 × 10^5 M^−1 s^−1
"O=S(=O)([O-])[O-].[Na+].[Na+] [sulfate, sodium sulfate]",Binding of sulfate to MSOX,[1]; 667 mM sodium sulfate control for ionic strength,does not bind
